Publication PMC8661056, “Synthesis and Evaluation of [^11C]7-Halogen-2-Phenyl Isoindolone Derivatives: Potential PET Radioligands for in vivo Imaging of 5-HT2C Receptors” (Frontiers in Neuroscience, 2021)

Experiments:
5-HT2C = biological target: T1, 5-HT2C (Homo sapiens, UniProt P28335); test: 5-HT2C competition binding assay with [^3H]mesulergine (NIMH PDSP); details: competition with [^3H]mesulergine; mean of three experiments ± SD; read-out: Binding affinity Ki, 5-HT2C
T1 sequence (P28335 33-458): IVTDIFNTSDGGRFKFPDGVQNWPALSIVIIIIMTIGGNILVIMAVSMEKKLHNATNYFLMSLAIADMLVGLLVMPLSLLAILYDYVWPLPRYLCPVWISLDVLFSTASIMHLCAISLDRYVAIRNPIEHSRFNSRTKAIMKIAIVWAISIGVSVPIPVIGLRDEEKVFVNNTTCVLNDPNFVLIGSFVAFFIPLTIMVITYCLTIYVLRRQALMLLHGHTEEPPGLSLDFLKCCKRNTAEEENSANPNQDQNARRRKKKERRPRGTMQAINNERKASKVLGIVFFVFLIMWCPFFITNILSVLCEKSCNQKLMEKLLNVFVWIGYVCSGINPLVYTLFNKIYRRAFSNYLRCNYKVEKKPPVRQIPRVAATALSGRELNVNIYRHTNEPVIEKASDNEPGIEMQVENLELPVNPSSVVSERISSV
From the text: (§1) We selected 6 and 9 for carbon-11 radiolabelling and PET imaging studies.

5-HT2A [1] = biological target: T2, 5-HT2A (Homo sapiens, UniProt P28223); test: competition binding assay (NIMH PDSP), 5-HT2A; details: read-out: Binding affinity Ki, 5-HT2A
T2 sequence (P28223 whole entry, species assumed): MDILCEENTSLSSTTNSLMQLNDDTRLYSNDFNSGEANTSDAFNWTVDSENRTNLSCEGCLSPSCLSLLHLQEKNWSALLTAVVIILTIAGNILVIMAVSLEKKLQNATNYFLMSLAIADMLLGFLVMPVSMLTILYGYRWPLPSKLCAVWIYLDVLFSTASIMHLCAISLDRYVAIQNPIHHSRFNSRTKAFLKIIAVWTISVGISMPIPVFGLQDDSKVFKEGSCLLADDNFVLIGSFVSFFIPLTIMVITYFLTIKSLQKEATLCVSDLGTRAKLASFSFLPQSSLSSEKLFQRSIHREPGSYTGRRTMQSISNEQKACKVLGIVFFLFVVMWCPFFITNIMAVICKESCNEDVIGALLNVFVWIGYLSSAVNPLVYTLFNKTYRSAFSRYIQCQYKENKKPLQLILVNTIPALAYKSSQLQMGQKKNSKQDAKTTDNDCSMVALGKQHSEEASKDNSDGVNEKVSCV

5-HT2B = 5-HT2B (Homo sapiens, UniProt P41595); test: competition binding assay (NIMH PDSP), 5-HT2B; details: mean of three experiments ± SD, read-out: Binding affinity Ki, 5-HT2B
5-HT2B, sequence (P41595 whole entry, species assumed): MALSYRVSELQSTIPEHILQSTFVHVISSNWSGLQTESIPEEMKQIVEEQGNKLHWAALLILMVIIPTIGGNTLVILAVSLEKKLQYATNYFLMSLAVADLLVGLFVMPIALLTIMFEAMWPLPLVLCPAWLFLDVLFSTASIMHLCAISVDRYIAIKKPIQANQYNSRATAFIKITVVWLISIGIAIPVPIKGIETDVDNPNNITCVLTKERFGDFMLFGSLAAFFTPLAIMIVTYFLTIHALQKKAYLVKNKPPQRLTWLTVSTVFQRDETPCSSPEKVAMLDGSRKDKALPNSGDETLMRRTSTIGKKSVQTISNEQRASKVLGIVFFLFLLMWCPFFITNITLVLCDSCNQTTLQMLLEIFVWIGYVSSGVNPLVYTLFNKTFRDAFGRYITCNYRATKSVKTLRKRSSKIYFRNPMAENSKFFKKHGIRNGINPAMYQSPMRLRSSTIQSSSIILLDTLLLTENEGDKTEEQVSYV

5-HT1A = biological target: T3, 5-HT1A (Homo sapiens, UniProt P08908); test: competition binding assay (NIMH PDSP), 5-HT1A; details: read-out: Binding affinity Ki, 5-HT1A
T3 sequence (P08908 1-422): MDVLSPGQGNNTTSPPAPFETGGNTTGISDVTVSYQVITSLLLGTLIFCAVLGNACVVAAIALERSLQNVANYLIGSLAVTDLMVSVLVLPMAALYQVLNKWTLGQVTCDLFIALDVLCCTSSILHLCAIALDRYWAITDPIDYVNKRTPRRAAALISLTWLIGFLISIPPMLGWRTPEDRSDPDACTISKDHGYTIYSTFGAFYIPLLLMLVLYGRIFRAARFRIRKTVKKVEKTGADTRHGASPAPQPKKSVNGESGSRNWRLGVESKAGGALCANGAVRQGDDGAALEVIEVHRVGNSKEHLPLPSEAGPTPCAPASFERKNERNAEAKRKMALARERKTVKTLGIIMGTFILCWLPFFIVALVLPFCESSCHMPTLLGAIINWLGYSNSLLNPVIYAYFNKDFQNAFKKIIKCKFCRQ

5-HT5–7 = test: competition binding assay (NIMH PDSP), 5-HT5–7; details: read-out: Binding affinity Ki, 5-HT5–7
D1-D5 = test: competition binding assay (NIMH PDSP), dopamine D1-D5; details: read-out: Binding affinity Ki, D1-D5
5-HT2A [2] = biological target: T2, 5-HT2A; test: primary binding, 5-HT2A
From the text: as §1

[3] = lipophilicity, octanol/phosphate buffer partition; format: physicochemical; details: pH 7.4, read-out: log P7.4
Protocol: [^11C]6 and [^11C]9 were prepared via O-methylation of 10 and 11 with [^11C]CH3I in the presence of 0.1 M Bu4NOH in DMF followed by HPLC purification, respectively. [^11C]6 and [^11C]9 were obtained in an average radiochemical yield of 37–44 ± 4% (n = 10, decay corrected) with ≥97% radiochemical and chemical purity. The total synthesis time was 50 ± 5 min end of bombardment and the specific activity were in the range of 0.5–1.2 Ci/μmol at time of injection. The lipophilicities of 6 and 9 (octanol/phosphate buffer partition) were measured. The log P7.4 values of [^11C]6 and [^11C]9 are 2.81 and 2.89, respectively, which are in the optimal range (1.0–3.0) for compounds expected to enter the brain readily.

5-HT2CR [4] = biological target: T4, 5-HT2CR (Rattus norvegicus, UniProt P08909); test: microPET/CT brain imaging in rats; format: in vivo, Sprague–Dawley rats
T4 construct: from tissue; host or cells: brain of living Sprague–Dawley rats (choroid plexus, hippocampus)
T4 sequence (P08909 33-460): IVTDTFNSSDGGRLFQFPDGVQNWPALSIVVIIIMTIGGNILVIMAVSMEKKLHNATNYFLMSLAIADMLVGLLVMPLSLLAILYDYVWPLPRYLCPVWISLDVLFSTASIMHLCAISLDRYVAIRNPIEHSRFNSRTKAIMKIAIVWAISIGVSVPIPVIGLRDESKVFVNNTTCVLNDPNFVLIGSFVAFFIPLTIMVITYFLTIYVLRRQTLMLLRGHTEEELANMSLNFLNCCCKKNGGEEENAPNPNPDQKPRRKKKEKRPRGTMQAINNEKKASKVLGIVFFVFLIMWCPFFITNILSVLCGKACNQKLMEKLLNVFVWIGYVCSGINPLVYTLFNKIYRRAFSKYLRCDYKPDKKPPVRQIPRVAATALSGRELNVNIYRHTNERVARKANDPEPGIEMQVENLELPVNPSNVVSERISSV
Protocol: [^11C]6 and [^11C]9 were intravenously administered to Sprague–Dawley rats and brain images were acquired with a Siemens Inveon microPET/CT imaging system, respectively (Figure 2).
FIGURE 2 PET analysis of [^11C]6 and [^11C]9 in Sprague–Dawley rats. (A) Summed images of [^11C]6 PET/CT data from 10 to 120 min p.i. at baseline. Orange arrows depict choroid plexus; Blue arrows depict hippocampus. (B) Summed images of [^11C]6 PET/CT data from 10 to 120 min p.i. after pretreatment with 0.1 mg/kg of SB-242084. (C) Mean (n = 3) time-activity curves for brain regions of interest of [^11C]6 at baseline with standard error. (D) Mean (n = 3) time-activity curves for brain regions of interest of [^11C]6 after pretreatment with 0.1 mg/kg of SB-242084 with standard error. (E) Mean (n = 3) time-activity curves for brain regions of interest of [^11C]9 at baseline with standard error. (F) Mean (n = 3) time-activity curves for brain regions of interest of [^11C]9 after pretreatment with 0.1 mg/kg of SB-242084 with standard error.

5-HT2CR [5] = test: microPET brain imaging in rhesus monkeys; format: in vivo; details: rhesus monkey
From the text: [^11C]6 and [^11C]9 were further evaluated in rhesus monkeys using a Siemens MicroPET Focus 220 scanner (Figure 3). […] Ratios of uptake in choroid plexus, hippocampus, amygdala, frontal cortex to that in cerebellum peaked at 2.7, 1.6, 1.3, and 1.1, respectively.
FIGURE 3 PET-MRI analysis of [^11C]6 and [^11C]9 in rhesus monkey. (A) MicroPET images of [^11C]6 (left) and corresponding fused PET/MRI images summed over all time at baseline. (B) MicroPET images [^11C]6 (left) and corresponding fused PET/MRI images summed over all time after pretreatment with 0.1 mg/kg of SB-242084. (C) Time-activity curves of [^11C]6 for brain regions of interest at baseline study. (D) Time-activity curves of [^11C]6 for brain regions after pretreatment with SB-242084. (E) Time-activity curves of [^11C]9 for brain regions of interest at baseline study. (F) Time-activity curves of [^11C]9 for brain regions after pretreatment with SB-242084.
(§2) To test specific binding of [^11C]6 and [^11C]9 to the choroid plexus and hippocampus, an in vivo microPET blocking study was performed with 0.1 mg/kg SB-242084 30 min prior to injection, respectively. Unfortunately, due to the unexpected low solubility of SB-242084 in the injection form (10% ethanol in saline), the administered SB-242084 in soluble form to the monkeys was likely much less than the target 0.1 mg/kg. As a result, the uptake of [^11C]6 and [^11C]9 in the choroid plexus and hippocampus was still present.

5-HT2CR [6] = tested on: 5-HT2CR; design: method as in Neelamegam et al., 2014; details: PET imaging; ref Neelamegam et al., 2014; cited from earlier work
5-HT2CR [7] = tested on: 5-HT2CR; design: method as in Zeng et al., 2018; details: rhesus monkeys; ref Zeng et al., 2018; cited from earlier work
[8] = solubility in the injection form; format: physicochemical; details: 10% ethanol in saline
Protocol: as §2

5-HT2CR [9] = details: no reference given; cited from earlier work
[10] = i.v., baseline, from time-activity curves

COc1ccc(N2Cc3cccc(I)c3C2=O)cc1OCCN1CCC(C)CC1 [Compound 9, 7-iodo-2-[4-methoxy-3-[2-(4-methylpiperidin-1-yl)ethoxy]phenyl]isoindolin-1-one]
Ki (5-HT2C): 1.1 ± 0.3 nM | Ki (5-HT2A [1]): > 1000 nM | Ki (5-HT2B): 126 ± 28 nM | Ki (5-HT1A): > 1000 nM | Ki (5-HT5–7): > 1000 nM | Ki (D1-D5): > 1000 nM | primary bindings at 5-HT2A (5-HT2A [2]): < 50%

CC1CCN(CCOc2cc(N3Cc4cccc(I)c4C3=O)ccc2O[11CH3])CC1 [[^11C]9, [^11C]7-iodo-2-[4-methoxy-3-[2-(4-methylpiperidin-1-yl)ethoxy]phenyl]isoindolin-1-one]
logD [3]: 2.89 | effect of pretreatment with SB-242084 on uptake (5-HT2CR [4]; 0.1 mg/kg SB-242084 prior to injection): reduction of radioactivity uptake in choroid plexus and hippocampus to the same level as of the cerebellum | ratio of uptake in choroid plexus to cerebellum, peak (5-HT2CR [4]; [10]): 1.9 | ratio of uptake in hippocampus to cerebellum, peak (5-HT2CR [4]; [10]): 1.3 | blood-brain barrier penetration (5-HT2CR [5]): excellent | SUV in choroid plexus (peak uptake) (5-HT2CR [5]; baseline): 2.01 | SUV in hippocampus (5-HT2CR [5]; baseline): 1.46 | ratio of uptake in choroid plexus to cerebellum, peak (5-HT2CR [5]; baseline): 3.7 | ratio of uptake in hippocampus to cerebellum, peak (5-HT2CR [5]; baseline): 2.7 | time of peak uptake in choroid plexus and hippocampus (5-HT2CR [5]; baseline, after injection): 25 to 55 min | effect of pretreatment with SB-242084 on uptake in choroid plexus and hippocampus (5-HT2CR [5]; target 0.1 mg/kg SB-242084 30 min prior to injection (soluble dose likely much less)): a reduction in the uptake and faster washout

c1cc2c3c(c1)[C@H]1CCC[C@H]1CN3CCN[11CH2]2 [[^11C]Vabicaserin]
non-specific binding in baboon brains (5-HT2CR [6]): high

Cc1ccc2c(C(=O)Nc3ccc(Oc4cccnc4C)nc3)c[nH]c2c1 [[^11C]5, 6-methyl-N-[6-[(2-methyl-3-pyridinyl)oxy]-3-pyridinyl]1H-indole-3-carboxamide]
level of specific binding in the choroid plexus (5-HT2CR [7]): high | overall brain uptake and retention (5-HT2CR [7]): low

Cc1cc2c(cc1Cl)N(C(=O)Nc1ccc(Oc3cccnc3C)nc1)CC2 [SB-242084]
solubility in the injection form [8]: low | Ki (5-HT2CR [9]): 3.6 nM
